Measured values from patent publication US20230129935A1, “SYSTEM, PRODUCT AND METHOD FOR MAINTAINING THE VAGINAL MICROBIOME” (VAGINAL BIOME SCIENCE, INC., priority 2021, published 2023).

How the values were obtained:
[1] = tested on: herpes simplex virus (HSV-2); conditions: after a single exposure; cited from earlier work
HIV = experiment: Killing of HIV and other pathogens by lubricant acidified with lactic acid; conditions: vaginal lubricant including substantially racemic lactic acid, matched to vaginal acidity

Compound	susceptibility to herpes simplex virus (HSV-2) [1]	killing of HIV and many other pathogens (HIV)
polyethylene glycol [polyethylene glycol (PEG-8)]	markedly increased susceptibility	–
CC(O)C(=O)O (racemic) [lactic acid]	–	kills HIV and many other pathogens
